Measurements from US6479548B2, “Substituted stilbenes as glucose uptake enhancers” (Telik, Inc., priority 2000, dated 2002).
pEC50: −log10 of the molar value.

How the values were obtained:
[1] = tested on: 3T3 L1 fibroblasts; test: Glucose transport activity (14C-2-deoxy-D-glucose uptake); assay type: cell-based; conditions: concentration producing increase in glucose transport that is 50% of the response of 100 nM insulin (5.6 nM insulin as lower bound), tested 1 μM to 56 μM
Procedure: 3T3 L1 fibroblasts (ATCC) were grown in Dulbecco's modified Eagle's medium (DMEM) with 10% fetal bovine serum (FBS). The cells were plated at a density of 3×10^4 cells/well in 24-well plates. Two days after confluence was reached, the cells were treated for 3 days with 0.5 mM isobutylmethylxanthine (IBMX), 1 μM dexamethasone, and 1.7 μM insulin. The cells were then transferred to DMEM with 1.7 μM insulin for 2 more days. The cells were maintained in DMEM with 10% FBS for an additional 4 days. Finally, the cells were serum-starved overnight in 0. 1% bovine serum albumin (BSA) in DMEM. The following day, the medium was replaced with 150 mM NaCl, 1.7 mM KCl, 0.9 mM CaCl2, K2HPO4 (pH 7.4), to which was added either the experimental compound or its vehicle (DMSO). Insulin or its vehicle (0.01% BSA) was diluted in the assay buffer (containing test compound or vehicle, respectively) to a final concentration of 5.6 nM. After incubation for 30 min at 37° C., 5 μCi/ml ^14C-2-deoxy-D-glucose was added, and the incubation was continued for an additional 30 min at 37° C. The cells were then washed 3 times with ice-cold PBS/20 mM glucose and lysed in 250 μl of lysis buffer (50 mM HEPES pH 7.6, 1% Triton X-100) for 30 min at room temperature. Radioactivity in the lysate was quantified by scintillation counting.
Once ^14C-2-deoxy-D-glucose is transported into the cell, it is not released. Glucose transport is, therefore, proportional to the amount of radioactivity in the lysate. […] The concentration of compound necessary to produce an increase in glucose transport that is 50% of the response of 100 nM insulin (using 5.6 nM insulin as the lower bound) was calculated as the EC50 (effective concentration).

[2] = target: T1, complete β-kinase domain of the human insulin receptor (CKD) (Homo sapiens, UniProt P06213); test: 32P-CKD autophosphorylation assay; assay type: biochemical; conditions: compound at 10 μM, phosphorylation of CKD expressed as % of the vehicle level; for activity at 10 µM: 10 min, read-out: Activity (% vs. control)
T1 construct: The complete β-kinase domain of the human insulin receptor (CKD); made in house
T1 sequence (P06213 1023-1298 limits assumed): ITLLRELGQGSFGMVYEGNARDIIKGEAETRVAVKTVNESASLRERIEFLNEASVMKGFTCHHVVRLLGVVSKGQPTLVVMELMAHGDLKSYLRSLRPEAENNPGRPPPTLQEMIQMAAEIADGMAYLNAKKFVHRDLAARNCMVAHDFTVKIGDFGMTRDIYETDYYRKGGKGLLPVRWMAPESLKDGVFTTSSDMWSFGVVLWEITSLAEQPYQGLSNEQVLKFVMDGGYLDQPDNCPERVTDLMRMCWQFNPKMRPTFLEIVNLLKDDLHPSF
Procedure: The complete β-kinase domain of the human insulin receptor (CKD) was expressed in, and purified from, baculovirus. CKD (4.0 μg/ml), in a solution of 29 mM HEPES (pH 7.6), 0.05% Triton X-100, 10 mM MgCl2, 2 mM MnCl2 (50 μl final volume), is combined with 50 μM ATP, and 5 μCi ^32P-ATP (3000 Ci/mmol).

activity at 10 µM [2] | Molecule | pEC50 ([1]; Mus musculus, 3T3-L1) | pEC50 [1] | Activity (% vs. control) [2]
112% | CNc1ccc(C(=O)Nc2ccc(/C=C/c3ccc(C(=O)O)cc3)cc2C(=O)O)cc1 [Compound 23, 5-[(1E)-2-(4-carboxyphenyl)vinyl]-2-{[4-(methylamino)phenyl]carbonylamino}-benzoic acid] | 4.01 |  | 
126% | O=C(O)Cc1ccc(/C=C/c2ccc(NC(=O)c3ccccc3C(=O)O)cc2)cc1 [Compound 24, 2-[N-(4-{(1E)-2-[4-(carboxymethyl)phenyl]vinyl}phenyl)carbamoyl]benzoic acid] | 3.38 |  | 
 | 5-((1E)-2-phenylvinyl)-2-({4-[(4-carboxyphenyl)-N-methylcarbonylamnino]phenyl}-N-methylcarbonylamino)benzoic acid [Compound 20] |  | 3.96 | 112%
